In the test the test system is MCF7 cells. As to the kind of experiment: Anti-proliferation (viability) of MCF7 cells (Table 7, FIG. 2B). The settings on record: Homo sapiens, MCF7, MCF7 cells, 3-6 days, 10-point serial dilution; read-out: GI IC50 in MCF-7. In kind it is cell-based.

pIC50: −log10 of the molar value. Some results are limits rather than exact numbers.

As to `CCCn1nc(NC(=O)c2ccc(NC)nc2NC2CC3(CC(NC(=O)CN4CCN(c5ccc(Nc6ncc7c(C)c(C(C)=O)c(=O)n(C8CCCC8)c7n6)nc5)CC4)C3)C2)cc1C` (centres unmarked) [CPD-314, 2-((6-(2-(4-(6-((6-acetyl-8-cyclopentyl-5-methyl-7-oxo-7,8-dihydropyrido[2,3-d]pyrimidin-2-yl)amino)pyridin-3-yl)piperazin-1-yl)acetamido)spiro[3.3]heptan-2-yl)amino)-N-(5-methyl-1-propyl-1H-pyrazol-3-yl)-6-(methylamino)nicotinamide], the pIC50 was less than 7.00. Then `CNc1ccc(C(=O)Nc2ccc(N(C)C)nn2)c(NC2CCN(C(=O)C3CC4(CCN(c5ccc(Nc6ncc7c(C)c(C(C)=O)c(=O)n(C8CCCC8)c7n6)nc5)CC4)C3)CC2)n1` [CPD-329, 2-((1-(7-(6-((6-acetyl-8-cyclopentyl-5-methyl-7-oxo-7,8-dihydropyrido[2,3-d]pyrimidin-2-yl)amino)pyridin-3-yl)-7-azaspiro[3.5]nonane-2-carbonyl)piperidin-4-yl)amino)-N-(6-(dimethylamino)pyridazin-3-yl)-6-(methylamino)nicotinamide], with less than 7.00; and `CC(=O)c1c(C)c2cnc(Nc3ccc(N4CCN(CCC(=O)N5CCC(Nc6nc(NC(C)C)ccc6C(=O)Nc6cn(C)c(C7CC7)n6)CC5)CC4)cn3)nc2n(C2CCCC2)c1=O` [CPD-313, 2-((1-(3-(4-(6-((6-acetyl-8-cyclopentyl-5-methyl-7-oxo-7,8-dihydropyrido[2,3-d]pyrimidin-2-yl)amino)pyridin-3-yl)piperazin-1-yl)propanoyl)piperidin-4-yl)amino)-N-(2-cyclopropyl-1-methyl-1H-imidazol-4-yl)-6-(isopropylamino)nicotinamide], with less than 7.00; and `CNc1ccc(C(=O)Nc2ccc(N(C)C)nn2)c(NC2CC(C(=O)N3CCC4(CCN(c5ccc(Nc6ncc7c(C)c(C(C)=O)c(=O)n(C8CCCC8)c7n6)nc5)CC4)C3)C2)n1` (centres unmarked) [CPD-381, 2-((3-(8-(6-((6-acetyl-8-cyclopentyl-5-methyl-7-oxo-7,8-dihydropyrido[2,3-d]pyrimidin-2-yl)amino)pyridin-3-yl)-2,8-diazaspiro[4.5]decane-2-carbonyl)cyclobutyl)amino)-N-(6-(dimethylamino)pyridazin-3-yl)-6-(methylamino)nicotinamide], with less than 7.00.

On to `CC(=O)c1c(C)c2cnc(Nc3ccc(N4CCC(N5CC(C(=O)N6CC7(CC(Nc8nc(NC(C)C)ccc8C(=O)Nc8ccc(N(C)C)nn8)C7)C6)C5)CC4)cn3)nc2n(C2CCCC2)c1=O` [CPD-391, 2-((2-(1-(1-(6-((6-acetyl-8-cyclopentyl-5-methyl-7-oxo-7,8-dihydropyrido[2,3-d]pyrimidin-2-yl)amino)pyridin-3-yl)piperidin-4-yl)azetidine-3-carbonyl)-2-azaspiro[3.3]heptan-6-yl)amino)-N-(6-(dimethylamino)pyridazin-3-yl)-6-(isopropylamino)nicotinamide], for which the pIC50 is less than 7.00. Consider `[2H]C([2H])([2H])Nc1ccc(C(=O)Nc2ccc(N(C)C)nn2)c(NC2CC(CNC(=O)CN3CCC4(CCN(c5ccc(Nc6ncc7c(C)c(C(C)=O)c(=O)n(C8CCCC8)c7n6)nc5)C4)C3)C2)n1` (centres unmarked) [CPD-445, 2-((3-((2-(7-(6-((6-acetyl-8-cyclopentyl-5-methyl-7-oxo-7,8-dihydropyrido[2,3-d]pyrimidin-2-yl)amino)pyridin-3-yl)-2,7-diazaspiro[4.4]nonan-2-yl)acetamido)methyl)cyclobutyl)amino)-N-(6-(dimethylamino)pyridazin-3-yl)-6-((methyl-d3)amino)nicotinamide], for which the negative logarithm of the IC50 (pIC50) is more than 7.30. On to `CNc1ccc(C(=O)Nc2ccc(N(C)C)nn2)c(NC2CC3(C2)CC(C(=O)N2CC(C4CCN(c5ccc(Nc6ncc7c(C)c(C(C)=O)c(=O)n(C8CCCC8)c7n6)nc5)CC4)C2)C3)n1` (centres unmarked) [CPD-376, 2-((6-(3-(1-(6-((6-acetyl-8-cyclopentyl-5-methyl-7-oxo-7,8-dihydropyrido[2,3-d]pyrimidin-2-yl)amino)pyridin-3-yl)piperidin-4-yl)azetidine-1-carbonyl)spiro[3.3]heptan-2-yl)amino)-N-(6-(dimethylamino)pyridazin-3-yl)-6-(methylamino)nicotinamide], for which the pIC50 is less than 7.00. In the case of `CNc1ccc(C(=O)Nc2ccc(N(C)C)nn2)c(N[C@H]2C[C@@H](CN3CCC(CN4CCN(c5ccc(Nc6ncc7c(C)c(C(C)=O)c(=O)n(C8CCCC8)c7n6)nc5)CC4)C3)C2)n1` (some centres unmarked) [CPD-336], the pIC50 was less than 7.00.

On to `CCNc1ccc(C(=O)Nc2cn(C)c(C3CC3)n2)c(NC2CC3(CC(NC(=O)CN4CCN(c5ccc(Nc6ncc7c(C)c(C(C)=O)c(=O)n(C8CCCC8)c7n6)nc5)CC4)C3)C2)n1` (centres unmarked) [CPD-293, 2-((6-(2-(4-(6-((6-acetyl-8-cyclopentyl-5-methyl-7-oxo-7,8-dihydropyrido[2,3-d]pyrimidin-2-yl)amino)pyridin-3-yl)piperazin-1-yl)acetamido)spiro[3.3]heptan-2-yl)amino)-N-(2-cyclopropyl-1-methyl-1H-imidazol-4-yl)-6-(ethylamino)nicotinamide], for which the pIC50 was less than 7.00. Take `[2H]C([2H])([2H])Nc1ccc(C(=O)Nc2ccc(N(C)C)nn2)c(NC2CCN(C(=O)CN3CCC4(CCN(c5ccc(Nc6ncc7c(C)c(C(C)=O)c(=O)n(C8CCCC8)c7n6)nc5)C4)C3)CC2)n1` (centres unmarked) [CPD-441, 2-((1-(2-(7-(6-((6-acetyl-8-cyclopentyl-5-methyl-7-oxo-7,8-dihydropyrido[2,3-d]pyrimidin-2-yl)amino)pyridin-3-yl)-2,7-diazaspiro[4.4]nonan-2-yl)acetyl)piperidin-4-yl)amino)-N-(6-(dimethylamino)pyridazin-3-yl)-6-((methyl-d3)amino)nicotinamide]: the pIC50 is more than 7.30. For `CCc1nc(NC(=O)c2ccc(NC)nc2NC2CC3(CC(NC(=O)CN4CCN(c5ccc(Nc6ncc7c(C)c(C(C)=O)c(=O)n(C8CCCC8)c7n6)nc5)CC4)C3)C2)cn1C` (centres unmarked) [CPD-308, 2-((6-(2-(4-(6-((6-acetyl-8-cyclopentyl-5-methyl-7-oxo-7,8-dihydropyrido[2,3-d]pyrimidin-2-yl)amino)pyridin-3-yl)piperazin-1-yl)acetamido)spiro[3.3]heptan-2-yl)amino)-N-(2-ethyl-1-methyl-1H-imidazol-4-yl)-6-(methylamino)nicotinamide], the negative-log IC50 (pIC50) was less than 7.00. As to `CC(=O)c1c(C)c2cnc(Nc3ccc(N4CCC5(CC4)CC5C(=O)N4CCC(Nc5nc(NC(C)C)ccc5C(=O)Nc5cn(C)c(C6CC6)n5)CC4)cn3)nc2n(C2CCCC2)c1=O` (centres unmarked) [CPD-409, 2-((1-(6-(6-((6-acetyl-8-cyclopentyl-5-methyl-7-oxo-7,8-dihydropyrido[2,3-d]pyrimidin-2-yl)amino)pyridin-3-yl)-6-azaspiro[2.5]octane-1-carbonyl)piperidin-4-yl)amino)-N-(2-cyclopropyl-1-menthyl-1H-imidazol-4-yl)-6-(isopropylamino)nicotinamide], the pIC50 was more than 7.30. Consider `CC(=O)c1c(C)c2cnc(Nc3ccc(N4CCN(C(CC(=O)N5CC6(CC(Nc7nc(NC(C)C)ccc7C(=O)Nc7cc(C)n(C)n7)C6)C5)C(F)(F)F)CC4)cn3)nc2n(C2CCCC2)c1=O` (centres unmarked) [CPD-433, 2-((2-(3-(4-(6-((6-acetyl-8-cyclopentyl-5-methyl-7-oxo-7,8-dihydropyrido[2,3-d]pyrimidin-2-yl)amino)pyridin-3-yl)piperazin-1-yl)-4,4,4-trifluorobutanoyl)-2-azaspiro[3.3]heptan-6-yl)amino)-N-(1,5-dimethyl-1H-pyrazol-3-yl)-6-(isopropylamino)nicotinamide], for which the pIC50 is more than 7.30. With `CC(=O)c1c(C)c2cnc(Nc3ccc(CN4CCN(CC(=O)N5CCC(Nc6nc(NC(C)C)ccc6C(=O)Nc6cc(C)n(C)n6)CC5)CC4)cn3)nc2n(C2CCCC2)c1=O` [CPD-421, 2-((1-(2-(4-((6-((6-acetyl-8-cyclopentyl-5-methyl-7-oxo-7,8-dihydropyrido[2,3-d]pyrimidin-2-yl)amino)pyridin-3-yl)methyl)piperazin-1-yl)acetyl)piperidin-4-yl)amino)-N-(1,5-dimethyl-1H-pyrazol-3-yl)-6-(isopropylamino)nicotinamide], the pIC50 was less than 7.00. In the case of `CC(=O)c1c(C)c2cnc(Nc3ccc(N4CCC5(CC4)CC5C(=O)NC4CCC(Nc5nc(NC(C)C)ccc5C(=O)Nc5ccc(N(C)C)nn5)C4)cn3)nc2n(C2CCCC2)c1=O` (centres unmarked) [CPD-417, 6-(6-((6-acetyl-8-cyclopentyl-5-methyl-7-oxo-7,8-dihydropyrido[2,3-d]pyrimidin-2-yl)amino)pyridin-3-yl)-N-(3-((3-((6-(dimethylamino)pyridazin-3-yl)carbamoyl)-6-(isopropylamino)pyridin-2-yl)amino)cyclopentyl)-6-azaspiro[2.5]octane-1-carboxamide], the negative-log IC50 (pIC50) was less than 7.00. Turning to `CNc1ccc(C(=O)Nc2ccc(N(C)C)nn2)c(NC2CC3(C2)CC(C(=O)NC2CC4(CCN(c5ccc(Nc6ncc7c(C)c(C(C)=O)c(=O)n(C8CCCC8)c7n6)nc5)CC4)C2)C3)n1` (centres unmarked) [CPD-374, 2-((6-((7-(6-((6-acetyl-8-cyclopentyl-5-methyl-7-oxo-7,8-dihydropyrido[2,3-d]pyrimidin-2-yl)amino)pyridin-3-yl)-7-azaspiro[3.5]nonan-2-yl)carbamoyl)spiro[3.3]heptan-2-yl)amino)-N-(6-(dimethylamino)pyridazin-3-yl)-6-(methylamino)nicotinamide], the pIC50 was less than 7.00. As to `CC(=O)c1c(C)c2cnc(Nc3ccc(N4CCC5(CC4)CC5C(=O)N4CC5(CC(Nc6nc(NC(C)C)ccc6C(=O)Nc6cn(C)c(C7CC7)n6)C5)C4)cn3)nc2n(C2CCCC2)c1=O` (centres unmarked) [CPD-412, 2-((2-(6-(6-((6-acetyl-8-cyclopentyl-5-methyl-7-oxo-7,8-dihydropyrido[2,3-d]pyrimidin-2-yl)amino)pyridin-3-yl)-6-azaspiro[2.5]octane-1-carbonyl)-2-azaspiro[3.3]heptan-6-yl)amino)-N-(2-cyclopropyl-1-methyl-1H-imidazol-4-yl)-6-(isopropylamino)nicotinamide], the pIC50 is less than 7.00.

The values above are taken from patent US20260297081A1, “COMPOUNDS AND METHODS OF TREATING CANCERS” (Cullgen Inc., priority 2023, published 2026).
